The values below come from patent US5516647A, “Compounds useful as alkaline phosphatase inhibitors and therapeutic agents” (Abbott Laboratories, priority 1993, dated 1996).

The subject of assay [1] is AP. The note with it: cited from earlier work.
In assay [2] the test system is placental and intestinal isoenzymes. The note with it: background art; cited from earlier work.
In assay [3] the test system is E. coli AP. As to the kind of experiment: Inhibition of (altered) E. coli AP (p-nitrophenylphosphate hydrolysis). It counts as biochemical. The note with it: FIG. 7, at the concentration inhibiting human isoenzymes, high concentrations. How it is done:
E. coli AP (APKJ3 and APKJ4) were obtained according to the methods disclosed in U.S. patent Ser. No. 08/031,165 and its CIP. APKJ4 is an E. coli AP in which the lysine at its position 177 has been replaced with cysteine.
(§1) AP activity was determined with VP Bichromatic Analyzer (Abbott Laboratories) by monitoring the appearance of the yellow product, p-nitrophenol, produced as a result of the enzyme catalyzed hydrolysis of the colorless substrate, p-nitrophenylphosphate. The stock preparations of E. coli and human AP were diluted to 0.3-1.0 U/ml with 0.1M Tris buffer, pH 8.0, containing 1 mM magnesium chloride, 0.1 mM zinc chloride and 5 mg/ml bovine serum albumin. […] The diluted enzyme solutions were prepared fresh just before the start of the experiments. The final assay conditions for the human and E. coli AP were as follows:
E. coli AP: P-Nitrophenylphosphate (1 mmol/liter); Tris-chloride (100 mmol/liter); Magnesium chloride (1 mmol/liter); and Zinc chloride (0.1 mmol/liter). The reaction pH was 8.0 at a reaction temperature of 37° C. and volume fraction (sample/total) of 0.033 (1:30).
(§2) The diluted enzymes and inhibitors at appropriate concentrations (as shown in the Figures) were hand pipetted into numbered cuvettes in the multicuvette assembly of the VP Bichromatic Analyzer. Once the assay was started, the analyzer dispensed an appropriate amount of the buffered solution of p-nitrophenylphosphate containing magnesium and zinc chlorides into each cuvette. The multicuvette assembly rotated and allowed measurement of absorbance changes at every two minutes intervals. A 415 nm-450 nm filter was used to assay AP activity. All enzyme activity measurements were done at least in duplicate and the average value was used in the data analyses.

For assay [4], the target named is T1, human placental AP (Homo sapiens, UniProt P05187).
T1 construct: purchased Sigma Chemical Co., St. Louis, Mo
T1 sequence (P05187 23-506 limits assumed): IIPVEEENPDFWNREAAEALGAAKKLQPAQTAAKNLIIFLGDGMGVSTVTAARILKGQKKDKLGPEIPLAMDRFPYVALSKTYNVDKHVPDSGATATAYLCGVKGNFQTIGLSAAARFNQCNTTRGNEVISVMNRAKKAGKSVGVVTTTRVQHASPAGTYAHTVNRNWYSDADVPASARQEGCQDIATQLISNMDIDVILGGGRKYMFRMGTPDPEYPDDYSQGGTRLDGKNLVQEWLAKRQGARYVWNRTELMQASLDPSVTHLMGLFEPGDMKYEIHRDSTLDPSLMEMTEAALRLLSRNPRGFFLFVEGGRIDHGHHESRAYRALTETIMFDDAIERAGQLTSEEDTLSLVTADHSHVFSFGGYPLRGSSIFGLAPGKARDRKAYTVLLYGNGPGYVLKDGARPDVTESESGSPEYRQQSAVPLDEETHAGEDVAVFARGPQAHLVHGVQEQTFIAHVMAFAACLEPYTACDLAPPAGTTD
Briefly: Inhibition of human placental AP isoenzyme (p-nitrophenylphosphate hydrolysis). The format is biochemical. The method, then:
(§3) Human intestinal AP was obtained from Aalto Scientific, Ltd. Vista, Calif. […] L-Phenylalanine was obtained from Aldrich Chemical Company, Milwaukee, Wis. Human bone AP was isolated from human osteosarcoma-derived cell line, Saos-2 (Catalog No. HTB 85, The American Type Culture Collection, 12301 Parklawn Drive, Rockville, Md.) by butanol extraction as described by J. R. Farley et al., (1989) Clin Chem. 35, 223-229.
as §1
(§4) Human AP Isoenzymes: p-Nitrophenylphosphate (2.2 mmol/liter); Diethanolamine (500 mmol/liter); Magnesium chloride (1 mmol/liter); Zinc chloride (0.1 mmol/liter). The reaction pH was 10.2 at a reaction temperature of 37° C. and volume fraction (sample/total) of 0.033 (1:30).
as §2
(§5) The I50 value for APl-3 is similarly calculated from its dose response curve.

Assay [5] addresses T2, human intestinal AP (Homo sapiens, UniProt P09923).
T2 construct: purchased Aalto Scientific, Ltd., Vista, Calif
T2 sequence (P09923 20-503 limits assumed): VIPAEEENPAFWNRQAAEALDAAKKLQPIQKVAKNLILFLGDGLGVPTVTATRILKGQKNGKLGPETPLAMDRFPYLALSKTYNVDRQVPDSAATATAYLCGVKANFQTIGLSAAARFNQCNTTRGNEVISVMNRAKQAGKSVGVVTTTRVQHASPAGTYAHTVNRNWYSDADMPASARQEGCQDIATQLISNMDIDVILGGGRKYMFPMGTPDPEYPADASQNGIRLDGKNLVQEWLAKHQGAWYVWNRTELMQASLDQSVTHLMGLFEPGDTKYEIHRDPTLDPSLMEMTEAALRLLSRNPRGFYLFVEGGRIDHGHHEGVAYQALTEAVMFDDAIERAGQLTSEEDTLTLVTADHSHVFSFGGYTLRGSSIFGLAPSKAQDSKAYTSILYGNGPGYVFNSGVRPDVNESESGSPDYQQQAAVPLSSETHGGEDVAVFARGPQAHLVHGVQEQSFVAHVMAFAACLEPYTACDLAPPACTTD
As to the kind of experiment: Inhibition of human intestinal AP isoenzyme (p-nitrophenylphosphate hydrolysis). The format is biochemical. How it is done: as §3, §1, §4, §2, §5

For assay [6], the target named is calf intestinal AP (Bos taurus, UniProt P19111). The note with it: used in an immunoassay; cited from earlier work.
Sequence of calf intestinal AP (P19111 20-506): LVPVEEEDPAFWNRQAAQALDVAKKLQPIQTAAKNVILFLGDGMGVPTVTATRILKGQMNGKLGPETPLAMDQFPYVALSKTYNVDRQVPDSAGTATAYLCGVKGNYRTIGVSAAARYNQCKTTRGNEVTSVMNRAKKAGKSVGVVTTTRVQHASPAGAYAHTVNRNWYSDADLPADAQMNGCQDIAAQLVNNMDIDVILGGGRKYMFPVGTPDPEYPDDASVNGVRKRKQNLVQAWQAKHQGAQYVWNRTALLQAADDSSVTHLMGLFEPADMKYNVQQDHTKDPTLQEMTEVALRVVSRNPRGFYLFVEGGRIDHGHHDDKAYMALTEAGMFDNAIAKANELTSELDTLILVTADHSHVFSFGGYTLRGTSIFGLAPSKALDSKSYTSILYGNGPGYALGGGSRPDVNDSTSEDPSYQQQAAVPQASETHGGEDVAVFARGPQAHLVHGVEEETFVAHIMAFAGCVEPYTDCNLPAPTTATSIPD
Assay [7] concerns tissue-nonspecific AP. The note with it: background art; cited from earlier work.
The mark [8] stands for this setting: FIG. 7, at the concentration compared with E. coli AP.

Regarding `c1ccc([C@@H]2CN3CCSC3=N2)cc1` [D- counterpart], the “AP inhibition by D- counterpart of levamisole” value in assay [1] is “not an AP inhibitor”.

As for `c1ccc([C@H]2CN3CCSC3=N2)cc1` [Levamisole, (L-)2,3,5,6-tetrahydro-6-phenylimidazo[1,2-b]thiazole, reference compound], the “inhibition of placental and intestinal isoenzymes” value in assay [2] was “only at much higher concentrations”. Besides, the “inhibition of the E. coli AP” value in assay [3] is 65%. In assay [4] (FIG. 5), the “effectiveness against placental isoenzymes” value is “a lot less effective compared to compounds APl-1 and APl-2”. The “order of effectiveness, placental isoenzymes” value in assay [4] (FIG. 5) was “APl-2>APl-1>levamisole>L-phenylalanine”. Also, in assay [4] (setting [8]), the “inhibition of the placental isoenzymes” value was found to be 80%. In addition, the IC50 in assay [4] (pH 10.2, 37° C., p-nitrophenylphosphate 2.2 mmol/liter, from dose response curves, read-out: [I]50 Placental AP: concentration of inhibitor that gives 50% inhibition of enzyme activity) was 2.2 mM; in assay [5] (pH 10.2, 37° C., p-nitrophenylphosphate 2.2 mmol/liter, from dose response curves, read-out: [I]50 Intestinal AP: concentration of inhibitor that gives 50% inhibition of enzyme activity), 12 mM. In addition, the “order of effectiveness, intestinal isoenzymes” value in assay [5] (FIG. 6) was “APl-2>APl-1>L-phenylalanine>levamisole”. Besides, the “inhibition of the intestinal isoenzymes” value in assay [5] (setting [8]) is on record as 48%. The “effect on specific immuno-signal generated by calf intestinal AP” value in assay [6] was “does not interfere with the specific immuno-signal generated by calf intestinal AP”. Moreover, in assay [7], the “sensitivity of tissue-nonspecific AP to inhibitor” value is reported as “strongly inhibited”.
